The record followed here is patent US20180099931A1 (AbbVie S.à.r.l., priority 2016, published 2018).

Usually pEC50 stands for −log10 of the EC50, conventionally taken in molar units.

This experiment deals with T1, F508delCFTR (Homo sapiens, UniProt P13569, DEL508-508).
T1 construct: expressed in transfected cells; host or cells: CFBE41o- human lung-derived epithelial cells (CFBE4lo-F508delCFTR-HRP), doxycycline-inducible
The experiment in a line: Cell Surface Expression-Horse Radish Peroxidase (CSE-HRP) Assay.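 On Maximum % activity (with co-corrector): co-corrector and positive control are both the same reference corrector at 2 µM.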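 On Maximum % activity (without co-corrector): percent of the 2 µM on-plate positive control corrector response above DMSO.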 In kind it is cell-based. To be noted: for Maximum % activity (with co-corrector) / Emax: maximum at any tested concentration, normalized to on-plate positive control; for Emax: read-out: Maximum % activity (without co-corrector).

The mark [1] stands for this setting: test compound without co-corrector, read-out: EC50 (without co-corrector).
Setting [2] is: with co-corrector (2 μM of 3-[(2R,4R)-4-({[1-(2,2-difluoro-1,3-benzodioxol-5-yl)cyclopropyl]carbonyl}amino)-7-methoxy-3,4-dihydro-2H-chromen-2-yl]benzoic acid), read-out: EC50 (with co-corrector).
The mark [3] stands for this setting: CSE-HRP, test compound without co-corrector, read-out: EC50 (without co-corrector).
Where [4] appears, read: CSE-HRP, with co-corrector (2 μM of 3-[(2R,4R)-4-({[1-(2,2-difluoro-1,3-benzodioxol-5-yl)cyclopropyl]carbonyl}amino)-7-methoxy-3,4-dihydro-2H-chromen-2-yl]benzoic acid), read-out: EC50 (with co-corrector).
Where [5] appears, read: CSE-HRP, with co-corrector (2 μM).
[6] abbreviates: test compound without co-corrector.
Setting [7] is: with co-corrector (2 μM of 3-[(2R,4R)-4-({[1-(2,2-difluoro-1,3-benzodioxol-5-yl)cyclopropyl]carbonyl}amino)-7-methoxy-3,4-dihydro-2H-chromen-2-yl]benzoic acid).

pEC50: −log10 of the molar value. Read-outs that look alike come from different tables or passages of the source. Bounds are passed on as bounds.

T1 sequence (P13569 with tags, fused parts or gaps DEL508-508): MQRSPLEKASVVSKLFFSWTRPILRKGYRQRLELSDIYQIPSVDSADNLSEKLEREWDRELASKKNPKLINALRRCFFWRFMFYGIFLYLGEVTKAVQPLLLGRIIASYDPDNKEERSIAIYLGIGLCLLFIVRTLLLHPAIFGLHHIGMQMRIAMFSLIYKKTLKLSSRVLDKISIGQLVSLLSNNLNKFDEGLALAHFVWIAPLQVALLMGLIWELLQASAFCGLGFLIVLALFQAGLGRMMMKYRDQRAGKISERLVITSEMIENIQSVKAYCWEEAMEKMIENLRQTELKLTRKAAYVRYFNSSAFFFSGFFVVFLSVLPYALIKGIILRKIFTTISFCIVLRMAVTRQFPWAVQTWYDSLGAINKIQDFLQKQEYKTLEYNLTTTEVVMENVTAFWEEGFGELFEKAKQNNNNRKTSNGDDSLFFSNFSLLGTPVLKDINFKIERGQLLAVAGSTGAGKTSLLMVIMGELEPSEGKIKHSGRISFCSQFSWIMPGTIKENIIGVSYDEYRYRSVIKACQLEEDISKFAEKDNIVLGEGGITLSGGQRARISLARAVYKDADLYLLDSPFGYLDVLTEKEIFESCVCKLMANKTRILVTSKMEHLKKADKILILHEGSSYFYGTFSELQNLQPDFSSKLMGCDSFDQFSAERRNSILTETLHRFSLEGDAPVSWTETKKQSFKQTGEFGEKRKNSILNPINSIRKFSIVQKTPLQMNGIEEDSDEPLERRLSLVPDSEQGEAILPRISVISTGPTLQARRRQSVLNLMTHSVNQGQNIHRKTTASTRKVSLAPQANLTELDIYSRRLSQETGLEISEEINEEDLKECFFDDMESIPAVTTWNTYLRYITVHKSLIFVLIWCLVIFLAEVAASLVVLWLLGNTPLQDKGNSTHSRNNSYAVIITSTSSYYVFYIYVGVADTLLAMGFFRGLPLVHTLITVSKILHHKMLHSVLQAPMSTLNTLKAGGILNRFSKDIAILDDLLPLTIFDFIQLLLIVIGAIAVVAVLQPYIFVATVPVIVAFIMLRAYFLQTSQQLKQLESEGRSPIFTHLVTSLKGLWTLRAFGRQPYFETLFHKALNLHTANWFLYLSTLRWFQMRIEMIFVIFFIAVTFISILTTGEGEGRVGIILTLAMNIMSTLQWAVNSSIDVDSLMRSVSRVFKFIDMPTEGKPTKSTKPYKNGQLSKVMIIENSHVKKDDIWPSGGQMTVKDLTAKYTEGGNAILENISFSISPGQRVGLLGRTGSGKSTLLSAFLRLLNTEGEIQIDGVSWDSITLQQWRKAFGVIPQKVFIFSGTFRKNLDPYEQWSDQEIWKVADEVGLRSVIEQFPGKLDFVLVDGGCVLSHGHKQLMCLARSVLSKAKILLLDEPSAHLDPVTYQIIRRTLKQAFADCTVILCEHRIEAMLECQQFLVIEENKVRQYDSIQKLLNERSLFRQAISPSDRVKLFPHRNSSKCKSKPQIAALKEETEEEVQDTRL

Regarding `COc1ccc([Si](C)(C)C)cc1CN[C@H]1[C@H](C(C)(C)C)[C@@H](C(=O)O)N(C(=O)[C@H]2CCCC(F)(F)C2)[C@H]1c1ccccc1` [II-441], the pEC50 reads like this: under setting [1], greater than 6.00; under setting [2], greater than 6.00.
For `COc1ccc(C(C)(C)C)cc1CN[C@H]1[C@H](C(C)(C)C)[C@@H](C(=O)O)N(C(=O)OC2COC2)[C@H]1c1ccccc1` [Example I-244, (2S,3S,4S,5S)-3-tert-butyl-4-{[(5-tert-butyl-2-methoxyphenyl)methyl]amino}-1-{[(oxetan-3-yl)oxy]carbonyl}-5-phenylpyrrolidine-2-carboxylic acid], the pEC50 is 5.00 to 6.00 under setting [1] and 5.00 to 6.00 under setting [2]. Moreover, for the setting “with co-corrector (2 μM)”, the “Maximum % activity (with co-corrector)” value is “+++ (≥350)”. The Emax (without co-corrector) is 100 to 200%.
In the case of `COc1cc(C(C)(C)C)ccc1CN[C@H]1[C@H](C(C)(C)C)[C@@H](C(=O)O)N(C(=O)C2CCCCC2)[C@H]1c1ccccc1OC` [II-141], the pEC50 is, setting by setting: under setting [3], 5.00 to 6.00; under setting [4], greater than 6.00. For the same compound, the “Maximum % activity (with co-corrector)” value under setting [5] was “+++ (≥350)”. Also, the Emax (CSE-HRP, without co-corrector) is 100 to 200%.
With `COc1ccc(C2CC3CCC2C3)cc1CN[C@H]1[C@H](C(C)(C)OC)[C@@H](C(=O)O)N(C(=O)C2CCCCC2)[C@H]1c1ccccc1` (stereo partly shown) [Example I-117], the pEC50 runs as follows: under setting [1], 5.00 to 6.00; under setting [2], greater than 6.00. For the same compound, the “Maximum % activity (with co-corrector)” value (with co-corrector (2 μM)) is on record as “+++ (≥350)”. The Emax (without co-corrector) is greater than 200%.
The matching figures for `COc1ccc(C(C)(C)C)cc1CN[C@H]1[C@H](C(C)(C)C)[C@@H](C(=O)O)N(C(=O)OC(C)C)[C@H]1c1cccnc1N1CCC1` [Example 99, (2S,3S,4S,5S)-5-[2-(azetidin-1-yl)pyridin-3-yl]-3-tert-butyl-4-{[(5-tert-butyl-2-methoxyphenyl)methyl]amino}-1-{[(propan-2-yl)oxy]carbonyl}pyrrolidine-2-carboxylic acid]: 5.00 to 6.00, 5.00 to 6.00, “+++ (≥350)” and greater than 200%.
For `COc1ccc(C(C)(C)C)cc1CN[C@H]1[C@H](C(C)(C)C)[C@@H](C(=O)O)N(C(=O)[C@@H]2C[C@H]2c2cccnc2)[C@H]1c1ccccc1` (relative stereo) [Example I-139], the pEC50 is, setting by setting: under setting [1], 5.00 to 6.00; under setting [2], 5.00 to 6.00. Also, the “Maximum % activity (with co-corrector)” value (with co-corrector (2 μM)) is on record as “+++ (≥350)”. Besides, under “without co-corrector”, the Emax was greater than 200%.
Consider `COc1nc(C(C)(C)C)ccc1CN[C@H]1[C@H](C(C)(C)C)[C@@H](C(=O)O)N(C(=O)OC(C)C)[C@H]1c1cccnc1OC` [Example I-234], for which the pEC50 reads like this: under setting [1], 5.00 to 6.00; under setting [2], greater than 6.00. Moreover, the “Maximum % activity (with co-corrector)” value (with co-corrector (2 μM)) was “+++ (≥350)”. The Emax (without co-corrector) was 100 to 200%.
As to `COc1ccc(C(C)(C)C)cc1N[C@H]1[C@H](C(C)(C)C)[C@@H](C(=O)O)N(C(=O)C2CCCCC2)[C@H]1c1ccccc1` [Example I-82], the pEC50 under setting [1] was 5.00 to 6.00 and the pEC50 under setting [2] is 5.00 to 6.00. The “Maximum % activity (with co-corrector)” value (with co-corrector (2 μM)) was “+++ (≥350)”. Further, the Emax (without co-corrector) is less than 100%.
For `COC(=O)N1CCC[C@@H](C(=O)N2[C@H](c3ccccc3)[C@H](Nc3cc(C(F)(F)F)cc(C)n3)[C@@H](C(C)(C)C)[C@@H]2C(=O)O)C1` (racemic) [Example I-27], the pEC50 is, setting by setting: under setting [1], 5.00 to 6.00; under setting [2], 5.00 to 6.00. In addition, where the note is “with co-corrector (2 μM)”, the “Maximum % activity (with co-corrector)” value was “+++ (≥350)”. Besides, for the setting “without co-corrector”, the Emax is greater than 200%.
For `COc1cccc([C@@H]2[C@H](NCc3cc(C(F)(F)F)ccc3OC)[C@@H](C(C)(C)C)[C@H](C(=O)O)N2C(=O)C2CCCCO2)n1` (mixture of isomers) [Example I-23], the pEC50 under setting [1] is 5.00 to 6.00 and the pEC50 under setting [2] is 5.00 to 6.00. Besides, the “Maximum % activity (with co-corrector)” value (with co-corrector (2 μM)) is on record as “+++ (≥350)”. Further, the Emax (without co-corrector) was less than 100%.
For `COc1ncc(C(F)(F)F)cc1CN[C@H]1[C@H](C(C)(C)C)[C@@H](C(=O)O)N(C(=O)C2CCC2)[C@H]1c1ccccc1C(C)C` [Example I-273], the pEC50 runs as follows: under setting [3], 5.00 to 6.00; under setting [4], greater than 6.00. The “Maximum % activity (with co-corrector)” value under setting [5] is “+++ (≥350)”. Also, where the note is “CSE-HRP, without co-corrector”, the Emax was greater than 200%.
As for `COc1ccc(C(C)(C)C)cc1CN[C@H]1[C@H](C(C)(C)C)[C@@H](C(=O)O)N(C(=O)C2CC(C)CCO2)[C@H]1c1ccccc1` (stereo partly shown) [II-174], the pEC50 under setting [3] was 5.00 to 6.00 and the pEC50 under setting [4] is 5.00 to 6.00. Moreover, the “Maximum % activity (with co-corrector)” value under setting [5] is “+++ (≥350)”. Moreover, under “CSE-HRP, without co-corrector”, the Emax was greater than 200%.
Turning to `COc1cc(C(F)(F)F)ccc1CN[C@H]1[C@H](C(C)(C)C)[C@@H](C(=O)O)N(C(=O)C2CCCCC2)[C@H]1c1ccccc1C` [Example 88, (2S,3S,4S,5S)-3-tert-butyl-1-(cyclohexanecarbonyl)-4-({[2-methoxy-4-(trifluoromethyl)phenyl]methyl}amino)-5-(2-methylphenyl)pyrrolidine-2-carboxylic acid], the pEC50 by setting is: under setting [1], greater than 6.00; under setting [2], greater than 6.00. Besides, the “Maximum % activity (with co-corrector)” value (with co-corrector (2 μM)) is listed as “+++ (≥350)”. Further, under “without co-corrector”, the Emax was greater than 200%.
As to `COc1cc(Cl)ccc1CN[C@@H]1[C@@H](C(C)(C)C)[C@H](C(=O)O)N(C(=O)C2CCCCC2)[C@@H]1c1ccccn1` (racemic) [III-82], the Emax under setting [6] is less than 100%. Besides, the pEC50 runs as follows: under setting [1], 5.00 to 6.00; under setting [2], 5.00 to 6.00. The “Maximum % activity (with co-corrector)” value under setting [7] is “++ (≥150 and <350)”.
Turning to `COc1ccc(C(F)(F)F)cc1CN[C@@H]1[C@@H](C(C)(C)C)[C@H](C(=O)O)N(C(=O)[C@@H](C)Oc2ccccc2)[C@@H]1c1ccccc1` (racemic) [II-66], the pEC50 is 5.00 to 6.00 under setting [3] and 5.00 to 6.00 under setting [4]. Also, the “Maximum % activity (with co-corrector)” value under setting [5] was “++ (≥150 and <350)”. Further, the Emax (CSE-HRP, without co-corrector) was less than 100%.
On to `COc1ccc(C(C)(C)C)cc1CN[C@H]1[C@H](C(C)(C)C)[C@@H](C(=O)O)N(C(=O)OC(C)C)[C@H]1c1cccnc1N(C)C` [Example 66, (2S,3S,4S,5S)-3-tert-butyl-4-{[(5-tert-butyl-2-methoxyphenyl)methyl]amino}-5-[2-(dimethylamino)pyridin-3-yl]-1-{[(propan-2-yl)oxy]carbonyl}pyrrolidine-2-carboxylic acid], for which the pEC50 is 5.00 to 6.00 under setting [1] and 5.00 to 6.00 under setting [2]. The “Maximum % activity (with co-corrector)” value (with co-corrector (2 μM)) is “+++ (≥350)”. Moreover, the Emax (without co-corrector) fell in the range of 100 to 200%.
In the case of `COc1ccc(C(C)(C)C)cc1CN[C@H]1[C@H](C(C)(C)C)[C@@H](C(=O)O)N(C(=O)c2ccc3c(c2)OCCCO3)[C@H]1c1ccccc1` [II-230], the pEC50 was 5.00 to 6.00 under setting [3] and 5.00 to 6.00 under setting [4]. Further, under setting [5], the “Maximum % activity (with co-corrector)” value is listed as “+++ (≥350)”. In addition, the Emax (CSE-HRP, without co-corrector) is 100 to 200%.
As for `COc1ccc(C(C)(C)C)cc1CN[C@H]1[C@H](C(C)(C)C)[C@@H](C(=O)O)N(C(=O)CC(C)C)[C@H]1c1ccccc1` [II-564], under setting [6], the Emax was greater than 200%. The pEC50 under setting [1] was 5.00 to 6.00 and the pEC50 under setting [2] is 5.00 to 6.00. The “Maximum % activity (with co-corrector)” value under setting [7] was “+++ (≥350)”.
Turning to `CC(C)(C)[C@@H]1[C@@H](NCc2cc(C(F)(F)F)cnc2N)[C@@H](c2ccccc2)N(C(=O)C2CCCCC2)[C@H]1C(=O)O` (racemic) [III-74], the Emax under setting [6] was less than 100%. Also, the pEC50 under setting [1] is less than 5.00 and the pEC50 under setting [2] is 5.00 to 6.00. Moreover, the “Maximum % activity (with co-corrector)” value under setting [7] is “++ (≥150 and <350)”.
On to `COc1cc2c(cc1CN[C@H]1[C@H](C(C)(C)C)[C@@H](C(=O)O)N(C(=O)OC(C)C)[C@H]1c1cccnc1N(C)C)CCC2` [II-563], for which the Emax under setting [6] was 100 to 200%. The pEC50 by setting is: under setting [1], 5.00 to 6.00; under setting [2], 5.00 to 6.00. Also, the “Maximum % activity (with co-corrector)” value under setting [7] is recorded as “+++ (≥350)”.
In the case of `CC(C)(C)[C@H]1[C@H](Nc2cc(C#N)cnc2Cl)[C@H](c2ccccc2)N(C(=O)C2CCCCC2)[C@@H]1C(=O)O` [II-145], the pEC50 under setting [3] was 5.00 to 6.00 and the pEC50 under setting [4] was 5.00 to 6.00. Also, the “Maximum % activity (with co-corrector)” value under setting [5] was “+++ (≥350)”. For the same compound, for the setting “CSE-HRP, without co-corrector”, the Emax was 100 to 200%.
With `COc1ccc(C(F)(F)F)cc1CN[C@@H]1[C@H](C(C)(C)C)[C@@H](C(=O)O)N(C(=O)OC(C)C)[C@H]1c1ccccc1` [II-556], under setting [6], the Emax was less than 100%. Moreover, the pEC50 is, setting by setting: under setting [1], 5.00 to 6.00; under setting [2], 5.00 to 6.00. Also, the “Maximum % activity (with co-corrector)” value under setting [7] was “++ (≥150 and <350)”.
Regarding `COc1ncc(C(F)(F)F)cc1CN[C@H]1[C@H](C(C)(C)C)[C@@H](C(=O)O)N(C(=O)C23CC(C2)C3)[C@H]1c1ccccc1C(C)C` [Example I-272], the pEC50 under setting [3] is 5.00 to 6.00 and the pEC50 under setting [4] was greater than 6.00. In addition, the “Maximum % activity (with co-corrector)” value under setting [5] was “+++ (≥350)”. Besides, the Emax (CSE-HRP, without co-corrector) fell in the range of 100 to 200%.
As for `COc1ncc(C(F)(F)F)cc1N[C@H]1[C@H](C(C)(C)C)[C@@H](C(=O)O)N(C(=O)[C@H]2CCCC[C@@H]2C(F)(F)F)[C@H]1c1cccnc1N(C)C` [III-212], the Emax under setting [6] was less than 100%. For the same compound, the negative-log EC50 (pEC50) was less than 5.00 under setting [1] and 5.00 to 6.00 under setting [2]. Also, under “with co-corrector (2 μM)”, the “Maximum % activity (with co-corrector)” value was “++ (≥150 and <350)”.
